How the values were obtained:
[1] = biological target: Protein farnesyltransferase (Homo sapiens, UniProt P49354+P49356); assay: Inhibition of rate of incorporation of [3H]FPP into recombinant Ras-CVIM by human farnesyltransferase.; format: protein-complex assay
[2] = biological target: Geranylgeranyl transferase type I (Homo sapiens, UniProt P49354+P53609); assay: Inhibition of rate of incorporation of [3H]GGPP into a biotinylated peptide corresponding to C-terminus of human Ki-Ras by human geranylgeranyl-transferase type I.; format: protein-complex assay
[3] = biological target: Protein farnesyltransferase (Rattus norvegicus, UniProt Q02293+Q04631); assay: Displacement of radiolabeled FTI from Farnesyltransferase in cultured v-Ha-ras-transformed RAT1 cells; format: functional, cell-based

IC50 [1]	IC50 [2]	IC50 [3]	SMILES
230 nM	600 nM		N#Cc1ccc(Cn2ccnc2)cc1Oc1cccc(Cc2ccccc2)c1
860 nM	7000 nM		N#Cc1ccc(Cn2ccnc2)cc1OCCc1ccccc1
	1300 nM		N#Cc1ccc(Cn2ccnc2)cc1Oc1ccc(-c2ccccc2)cc1
86 nM	12000 nM		N#Cc1ccc(Cn2ccnc2)cc1OCCc1ccc(-c2ccccc2)cc1
1500 nM	6800 nM		N#Cc1ccc(Cn2ccnc2)cc1OCc1ccccc1
38 nM	2900 nM		N#Cc1ccc(Cn2ccnc2)cc1Oc1cccc(Br)c1
440 nM	380 nM		N#Cc1ccc(Cn2ccnc2)cc1OCCCCc1ccccc1
340 nM	28000 nM		COc1ccccc1Oc1cc(Cn2ccnc2)ccc1C#N
41 nM	1100 nM		N#Cc1ccc(Cn2ccnc2)cc1Oc1ccccc1Cl
150 nM	3200 nM		N#Cc1ccc(Cn2ccnc2)cc1Oc1cccc2ccccc12
17 nM	630 nM		N#Cc1ccc(Cn2ccnc2)cc1Oc1cccc(Nc2ccccc2)c1
1.1 nM	520 nM		N#Cc1ccc(Cn2ccnc2)cc1Oc1ccc2ccccc2c1
9.6 nM	520 nM		N#Cc1ccc(Cn2ccnc2)cc1Oc1cccc(-c2ccccc2)c1
200 nM	3100 nM		N#Cc1ccc(Cn2ccnc2)cc1OCCCc1ccccc1
53 nM	3200 nM		N#Cc1ccc(Cn2ccnc2)cc1Oc1cccc(Cl)c1
110 nM	740 nM		N#Cc1ccc(Cn2ccnc2)cc1Oc1ccccc1-c1ccccc1
14 nM	280 nM		N#Cc1ccc(Cn2ccnc2)cc1Oc1cccc(Oc2ccccc2)c1
230 nM	3700 nM		N#Cc1ccc(Cn2ccnc2)cc1Oc1ccccc1

The remaining lines, values behind:

SMILES	IC50 [1]	IC50 [2]	IC50 [3]
COc1ccc(Oc2cc(Cn3ccnc3)ccc2C#N)cc1	290 nM	3500 nM	
N#Cc1ccc(Cn2ccnc2)cc1Oc1ccc(Cl)cc1	38 nM	920 nM	
CCC1(c2cccc(Oc3cc(Cn4ccnc4)ccc3C#N)c2)CCCCN(C)C1=O (stereo not drawn)	2.9 nM	7.1 nM	4.9 nM
COc1cccc(Oc2cc(Cn3ccnc3)ccc2C#N)c1OC	1 nM	15000 nM	14 nM
COc1ccc(OC)c(Oc2cc(Cn3ccnc3)ccc2C#N)c1	100 nM	18000 nM	
N#Cc1ccc(Cn2ccnc2)cc1Oc1cccc(F)c1	180 nM	4400 nM	
N#Cc1ccc(Cn2ccnc2)cc1S(=O)(=O)c1ccc(Cl)cc1Cl	5400 nM	8800 nM	
N#Cc1ccc(Cn2ccnc2)cc1Oc1cccc(C(=O)c2ccccc2)c1	13 nM	840 nM	
N#Cc1cccc(Oc2cc(Cn3ccnc3)ccc2C#N)c1	130 nM	16000 nM	
C#Cc1cccc(Oc2cc(Cn3ccnc3)ccc2C#N)c1	27 nM	2600 nM	
CC(=O)c1cccc(Oc2cc(Cn3ccnc3)ccc2C#N)c1	45 nM	6100 nM	
CC(C)(C)c1cccc(Oc2cc(Cn3ccnc3)ccc2C#N)c1	27 nM	520 nM	
Cc1ncn(Cc2ccc(C#N)cc2)c1CN1CC(=O)N(c2cccc(Cl)c2)CC1CCS(C)(=O)=O (stereo not drawn)	475 nM		
N#Cc1ccc(Cn2ccnc2)cc1Oc1cccc(NC(=O)c2ccccc2)c1	38 nM	2000 nM	
N#Cc1ccc(Cn2ccnc2)cc1Oc1cccc(C(=O)Nc2ccccc2)c1	38 nM	3300 nM	
N#Cc1ccc(Cn2ccnc2)cc1Oc1ccc(Cl)c(Cl)c1	28 nM	1200 nM	
COc1cccc(Oc2cc(Cn3ccnc3)ccc2C#N)c1	40 nM	3500 nM	
N#Cc1ccc(Cn2ccnc2)cc1[S+]([O-])c1ccc(Cl)cc1Cl (stereo not drawn)	390 nM	2000 nM	
N#Cc1ccc(Cn2ccnc2)cc1Sc1ccc(Cl)cc1Cl	< 1 nM	23 nM	96 nM
N#Cc1ccc(Cn2ccnc2)cc1Oc1ccc(Cl)cc1Cl	8 nM	280 nM	260 nM

Reference: ChEMBL document CHEMBL1134056, “Diaryl ether inhibitors of farnesyl-protein transferase” (Bioorg Med Chem Lett, 2001)
